US20240091169A1, “POL[…] FOR TREATING INFLAMMATORY DISEASES” (UNIVERSITY OF SOUTH CAROLINA, priority 2022, published 2024)

Tests used:
AOM/DSS-induced CRC = experiment: AOM/DSS mouse model of colorectal cancer (CRC); format: in vivo, C57BL/6 mice
C26 CRC cells = experiment: CCK-8 cell viability of C26 CRC cells; format: cell-based; settings: 24 hr, read-out: IC50, anti-proliferative activity against C26 CRC cells
Experimental: BMDMs were isolated as described above. On day 6 of maturation, BMDMs were subjected to 7 concentrations of PA to assess cell death: 0.001, 0.01, 0.1, 1.0, 5.0, 10.0, and 100.0 μM. On day 7 (i.e., 24 hr-post PA treatment), CCK-8 (Dojindo; Cat #CK04) assays were completed per manufacturer's instructions. C26 CRC cells were also subjected to these 7 concentrations of PA for 24 hr to assess cell death using CCK-8. Three independent experiments were carried out.

[1] = test system: DSS-induced acute colitis; experiment: DSS mouse model, Experiment 2: acute colitis; format: in vivo, C57BL/6 female mice
Experimental: Experiment 2—Acute Colitis: 14-week-old C57BL/6 female mice were given 1 cycle of 2% DSS in drinking water for 7 days, immediately followed by 7 days of regular drinking water. Either vehicle or panaxynol was administered 3×/week beginning on the day prior to the first DSS cycle (day −1) until study completion (FIG. 10A). To ensure the induction of colitis and to quantify disease states, colitis symptoms were monitored every other day using the same DAI as above. Mice were euthanized on day 14—one day after the last dose of panaxynol was given. Colons were placed in the appropriate buffers for further analysis. Data presented in FIGS. 10-14 (i.e., histology, immunofluorescence, electron microscopy, and flow cytometry) was obtained using colonic tissue from 2 cohorts of Experiment 2—Acute Colitis.
Panaxynol (PA; C17H24O) was purchased from Biopurify Pytochemicals Ltd in sealed 5 mg/mL vials in pure 95% ethanol and stored at −20° C. PA was prepared fresh on the day of treatment by diluting in H2O to 1 mg/mL for administration (p.o.) at a dosage of 2.5 mg/kg. This dosage was chosen following a pilot dose-response study to determine PA's efficacy. […]
All mice underwent the same symptom monitoring and scoring. […] Symptom scores were calculated by scoring percent body weight loss, stool consistency, and rectal bleeding as previously described. Briefly, fresh colonic evacuates were smeared onto “Hemoccult” tape (Beckman Coulter) to assess severity of diarrhea and were tested with developer (Beckman Coulter) to assess rectal bleeding. Stool consistency was scored as follows: solid cylinder (0), soft cylinder and easily spreadable (2), and noncylindrical or runny (4). Bleeding was scored as follows: no positive detection of blood (0), detection of blood but not grossly visible (2), and gross visibility of blood (4). Body weight was calculated as percent bodyweight loss: 0%-5% (0), 6%-10% (1), 11%-15% (2), 15%-20% (3), 20%-25% (4), and >25% (5). Scores of all three categories were summed to obtain an overall symptom score for each mouse.
Prior to euthanasia, colonoscopies were performed (n=3/group) to visualize the colonic tissue and quantify the severity of disease (colitis and colorectal tumors) using an established protocol. Briefly, mice were anesthetized with isoflurane to perform a detailed endoscopic examination in which the endoscope was gently inserted into the rectum and through the anus. Air was applied to slowly set apart the intestinal walls for examination. As the scope advanced, pictures were taken frequently and the following were meticulously assessed and scored by the blinded primary investigator using the well-established scoring system to integrate evaluation of intestinal inflammation (i.e., focal lesions (edematous areas of mucosa, erosions/reddened areas, ulcers), perianal region findings (diarrhea, bloody anal discharge, or prolapse), transparency of the colonic wall (visualization of the intramural blood vessels), and presence of intestinal bleeding) and tumors. Scoring was performed as previously described with no modifications. Upon completion of colonoscopies, mice were placed on a warm pad set at 37° C. for 5 min.
Lamina propria (LP) cells were isolated from colons to be used for flow cytometry to identify immune cell populations within the colonic LP. Colons were rinsed in sterile ice-cold PBS and minced with scissors. Tissues were subjected to a cell dissociation solution (HBSS without Ca^2+Mg^2+ containing 5 mM EDTA and 1 mM DTT) in a shaking incubator for 30 min at 37° C. Tubes containing dissociated tissues were vortexed and passed through a 100 μm cell strainer; flow through containing intestinal epithelial cells (IECs) was discarded. Remaining tissue was subjected to a cell digestion buffer (HBSS with Ca^2+Mg^2+ containing 5% FBS, 5 mg/mL Collagenase D, 50 μg/mL DNase 1, and 1 U/mL Dispase) in a shaking incubator for 30 min at 37° C. Tubes were vortexed and passed through a 40 μm cell strainer. […]

[2] = females, males, and sexes combined, vs VEH, p≤0.05
[3] = proximal colon (tumors intact) RT-qPCR, vs VEH, p≤0.05
[4] = proximal colon RT-qPCR, vs VEH, p≤0.05
[5] = proximal colon qRT-PCR, vs VEH, p≤0.05
[6] = removed tumors RT-PCR, vs VEH, p≤0.05

C=CC(O)C#CC#CC/C=C\CCCCCCC (stereo in doubt) [PA, 3(R)-(9Z)-heptadeca-1,9-dien-4,6-diyn-3-ol]
survival (AOM/DSS-induced CRC; 2.5 mg/kg p.o. 3x/week, 12 weeks, vs AOM/DSS+VEH, FIG. 1B): appears to improve survival, although non-significant | goblet cells per crypt (AOM/DSS-induced CRC; Alcian Blue, distal colon, no difference between CF and PA): completely rescued | Foxp3 gene expression in tumors (AOM/DSS-induced CRC; RT-qPCR, vs VEH, p≤0.05): decrease | colonoscopy score: focal lesions (AOM/DSS-induced CRC; after 12 weeks, vs VEH): no significant difference | colonoscopy score: perianal findings (AOM/DSS-induced CRC; after 12 weeks, vs VEH, p=0.08): no significant difference | colonoscopy score: inflammation (AOM/DSS-induced CRC; after 12 weeks, vs VEH, p≤0.05): significant reductions | colonoscopy score: intestinal bleeding (AOM/DSS-induced CRC; after 12 weeks, vs VEH, p≤0.05): significant reductions | colonoscopy score: transparency of the colonic wall (AOM/DSS-induced CRC; after 12 weeks, vs VEH, p≤0.05): significant reduction (i.e., improvement) | colonoscopy tumor score (AOM/DSS-induced CRC; after 12 weeks, vs VEH, p≤0.05): significantly reduced | abundance of CD11b+CD68+ macrophages in colonic lamina propria (AOM/DSS-induced CRC; colons with tumors intact, flow cytometry, vs VEH, p≤0.05): significantly decreased | submucosal invasion and destruction of the crypts (H&E) (AOM/DSS-induced CRC; distal colon, vs VEH): did not appear as severe | large tumors (>2 mm) (AOM/DSS-induced CRC; females and sexes combined, vs VEH, p≤0.05): significant reduction | number of medium sized tumors (1-2 mm) (AOM/DSS-induced CRC; [2]): significantly reduced | total number of tumors (AOM/DSS-induced CRC; [2]): significantly reduced | abundance of neutrophils in the colon (AOM/DSS-induced CRC; flow cytometry, n=2-3/group, statistics not performed): appeared to protect against the increased abundance | relative abundance of macrophages in colons following tumor removal (AOM/DSS-induced CRC; flow cytometry, increase with VEH vs CF, p≤0.05): ameliorated | F4/80 immunofluorescence staining in colonic tumors (AOM/DSS-induced CRC; pan macrophage marker, n=3/group): reduction in macrophages | CD68 gene expression (AOM/DSS-induced CRC; [3]): significantly suppressed | MSR-1 gene expression (AOM/DSS-induced CRC; [3]): significantly suppressed | mannose receptor C type 1 (Mrc1) gene expression (AOM/DSS-induced CRC; [3]): significantly suppressed | IL-1β gene expression (AOM/DSS-induced CRC; [4]): significant downregulation | IL-6 gene expression (AOM/DSS-induced CRC; [4]): significant downregulation | IL-10 gene expression (AOM/DSS-induced CRC; [4]): significantly downregulated | IL-13 gene expression (AOM/DSS-induced CRC; [4]): significantly downregulated | TGF-β1 gene expression (AOM/DSS-induced CRC; [4]): significantly downregulated | neutrophil marker Ly6g gene expression (AOM/DSS-induced CRC; [4]): significantly downregulated | Muc1 gene expression (AOM/DSS-induced CRC; proximal colon qRT-PCR, vs VEH, p=0.08): slightly but non-significantly reduced | Muc2 gene expression (AOM/DSS-induced CRC; [5]): significantly increased | occludin (OCLN) gene expression (AOM/DSS-induced CRC; [5]): upregulated | tight junction protein 3 (TJP3) gene expression (AOM/DSS-induced CRC; [5]): upregulated | gene expression of pro-apoptotic marker Bax in colonic tumors (AOM/DSS-induced CRC; qRT-PCR, vs VEH, p=0.09): increased, although non-significant | TGF-01 gene expression in tumors (AOM/DSS-induced CRC; removed tumors RT-PCR, vs VEH, p=0.08): suppressed | CD68 gene expression in tumors (AOM/DSS-induced CRC; [6]): significantly suppressed | IL-6 gene expression in tumors (AOM/DSS-induced CRC; [6]): suppressed | IL-13 gene expression in tumors (AOM/DSS-induced CRC; [6]): suppressed | small tumors (≤1 mm) (AOM/DSS-induced CRC; sexes combined, reduction observed, p=0.08): did not reach statistical significance | colonic TCRβ+FoxP3+ T-regs (AOM/DSS-induced CRC; tumor-removed colons, flow cytometry, between VEH and PA): no difference | percentage of Ki67 positive cells in colonic tumors (AOM/DSS-induced CRC; vs VEH, p≤0.05): significant decreased | percentage of apoptotic cells (TUNEL) in colonic tumors (AOM/DSS-induced CRC; vs VEH, p≤0.05): significant increase | overall symptom score (bodyweight loss, stool consistency, rectal bleeding) (AOM/DSS-induced CRC; weeks 1-3, 5-7 and 10-12, vs VEH, FIG. 1C): significantly suppressed | circulating lymphocytes (AOM/DSS-induced CRC; whole blood, end of study, PA vs VEH): no difference between VEH- and PA-treated groups | total WBCs (AOM/DSS-induced CRC; whole blood, end of study, across groups): no change | circulating monocytes (AOM/DSS-induced CRC; whole blood, end of study, increase with VEH vs CF, p≤0.05): rescued | neutrophil to lymphocyte ratio (NLR) (AOM/DSS-induced CRC; whole blood, end of study, p≤0.05): decrease | circulating neutrophils (AOM/DSS-induced CRC; whole blood, end of study, vs VEH, p≤0.05): ameliorate the significant increase | IC50 (C26 CRC cells): 1000 nM | goblet cell count per crypt ([1]; Alcian Blue, DSS+Veh -75% vs Control, p=0.0003): rescued | rectal bleeding ([1]; DAI, vs DSS+Veh): decreased | stool consistency ([1]; DAI, vs DSS+Veh): improved | average crypt width ([1]; H&E, DSS+Veh +124% vs Control, Pax vs Control p=0.641): not different from Control | reduction in inflammation (endoscopic score) ([1]; day 14, vs DSS+Veh, p=0.012): 63% | reduction in total endoscopic scores ([1]; day 14, vs DSS+Veh, p=0.014): 62% | reduction in total lesions (endoscopic score) ([1]; day 14, vs DSS+Veh, p=0.029): 58% | reduction in erosions (endoscopic score) ([1]; day 14, vs DSS+Veh, p=0.033): 55% | reduction in ulcers (endoscopic score) ([1]; day 14, vs DSS+Veh, p=0.047): 62% | widening and gaping of the crypts (SEM 3000×) ([1]; distal colon): partially rescued | edema in the intercellular space of IECs (TEM) ([1]; distal colon, edema seen only in DSS+Veh): no edema | mucus on mucosa (SEM 2000×) ([1]; distal colon, vs DSS+Veh): more areas of mucus formation, preservation, and abundance | body weight ([1]; end of study, not significant vs DSS+Veh 18.4±0.6, p=0.383): 19.1 ± 0.4 g | CD45+CD4+ helper T-cells in colonic LP ([1]; flow cytometry, between DSS-treated groups, p=0.446): no significant differences | M1 macrophages in colonic LP ([1]; flow cytometry, vs DSS+Veh, p=0.011): decreased | relative abundance of naïve (M0) macrophages in colonic LP ([1]; flow cytometry, vs DSS+Veh, p=0.019): increased | TCRβ+FoxP3+ T-regs in colonic LP ([1]; flow cytometry, vs DSS+Veh, p=0.027): significantly increased | M2 macrophages in colonic LP ([1]; flow cytometry, vs DSS+Veh, p=0.041): decreased | LiveCD45+ immune cells in colonic LP ([1]; flow cytometry, vs DSS+Veh, p=0.056, not statistically significant): trending increase | CD11b+CD68+ macrophages in colonic LP ([1]; flow cytometry, vs DSS+Veh, p=0.07, not statistically significant): decrease | transitional (M1/M2) macrophages in colonic LP ([1]; flow cytometry, within DSS-treated groups, p=0.085): no significant differences | crypt width distribution curve ([1]; rightward shift Control to DSS+Veh, FIG. 11C): significantly (p≤0.05) improved | DAI scores ([1]; throughout treatment, vs DSS+Veh): significantly (p≤0.05) improved
